Reference: patent US20250345318A1, “COMPOUND AND USE THEREOF IN PREVENTING OR TREATING RADIATION DAMAGE” (SIMCERE PHARMACEUTICAL CO., LTD., priority 2022, published 2025)

Experiments:
[1] = test system: JWA^IEC WT mice; assay: R-JAC4 in radiation enteritis model, JWA^IEC WT mice (Example 19); assay type: in vivo; conditions: R-JAC4 10 mg/kg
Description: (§1) Intestinal epithelial cell JWA-knockout mice (JWA^IEC KO) and their wild type littermates (JWA^IEC WT) were subjected to radiation enteritis modeling in the same manner as in Example 17 and were given R-JAC4 10 mg/kg treatment. In addition to the detection of FD4 concentration, the plasma was collected from the mice at the end of study to detect the plasma proinflammatory cytokine level by ELISA and the activity of antioxidant-related enzymes by biochemical tests.

[2] = test system: JWA^IEC KO mice; assay: R-JAC4 in radiation enteritis model, JWA^IEC KO mice (Example 19); assay type: in vivo
Description: as §1

[3] = Pharmacokinetics of R-JAC4 and S-JAC4 in mice (Example 17); assay type: in vivo; conditions: for F / clearance (CL) / AUC(0-t) / Cmax / Tmax / half-life / C0 / Vd: female BALB/c mice; for F: intragastric 10 mg/kg vs intravenous 3 mg/kg; for clearance (CL) / AUC(0-t) / Cmax / Tmax / half-life / C0 / Vd: mean, n = 3; for AUC(0-t) / Cmax / Tmax / half-life / C0 / Vd: mouse, plasma; for Vd: read-out: Vss
[4] = test system: Caco-2 cells; assay: Integrity of irradiated single Caco-2 cell layer: electric resistance, FD4 permeability (Example 23); assay type: cell-based; conditions: 20 Gy, 24 h later
Description: Caco-2 cells were cultured in a mixture of 78% MEM+20% FBS+1% P/S+1% NEAA and seeded in a 24-well chamber at a density of 10,000 cells/well, with the culture medium refreshed once every 2 days until day 11. The cells were then pretreated with DMSO or 1, 3, or 10 μM R-JAC4 for 3 days. The single cell layer model was constructed during the 14 days. The model was then irradiated at a dose of 0 Gy or 20 Gy at a dose rate of 2.5 Gy/min, and the electric resistance of the single cell layer and the permeability of FD4 were measured 24 h later.

[5] = test system: C57/BL6 mice; assay: R-JAC4 in radiation enteritis mouse model: plasma FD4, small intestine length (Example 18); assay type: in vivo; conditions: R-JAC4 10 mg/kg and 3 mg/kg intragastric, ABI 12 Gy
Description: The formulation of the vehicle for R-JAC4 was polyethylene glycol:ethanol:physiological saline=40:7.5:52.5, v/v/v. The vehicle group and the treatment groups were given the vehicle or treatment at the same volume by the same route.
The vehicle was administered to the vehicle control group intragastrically, and R-JAC4 10 mg/kg and R-JAC4 3 mg/kg interventions were given to the R-JAC4 treatment groups intragastrically. The treatment started 7 days before the X-ray radiation and was administrated once daily until the day before the end of study, for a total of […].
X-ray radiation: The mice were anesthetized intraperitoneally and exposed to ABI using an X-ray irradiator (12 Gy, 1.25 Gy/min). The irradiated region was a 3 cm region above the iliac joint below the chest, so as to induce gastrointestinal radiation syndrome.
Permeability detection in the small intestine: On day 4 post-radiation, FITC-dextran 4 kDa, abbreviated as FD4, was given to the mice intragastrically at a dose of 0.6 mg/g body weight. Peripheral blood was collected in an anticoagulation tube after 4 h, and the plasma was collected by centrifugation. The samples were added to a 96-well plate at 100 μL, and the fluorescence intensity was measured (excitation wavelength: 485 nm, emission wavelength: 535 nm). The FD4 concentrations of the samples were calculated by regression according to a standard curve. […]

[6] = R-JAC4, JWA^IEC KO mice vs vehicle control
[7] = single intravenous dose 3 mg/kg
[8] = po, single intragastric dose 10 mg/kg
[9] = 1 μM R-JAC4 3 days pretreatment
[10] = 3 μM R-JAC4 3 days pretreatment

Row | Compound | F [3] [%] | clearance (CL) [3, 7] [mL/min/kg] | AUC(0-t) [3, 8] [ng·h/mL] | Cmax [3, 8] [ng/mL] | Tmax [3, 8] [min] | half-life [3, 8] [min] | AUC(0-t) [3, 7] [ng·h/mL] | C0 [3, 7] [ng/mL] | half-life [3, 7] [min] | Vd [3, 7] [L/kg] | other results
1 | c1ccc(CSc2nnc([C@H]3COc4ccccc4O3)o2)nc1 [R-JAC4] | 3.94 | 140 | 49.5 | 176 | 4.98 | 22.7 | 374 | 1680 | 36 | 3.64 | activity of plasma glutathione peroxidase and catalase [1]: significantly increased; plasma FD4 level [1]: significantly downregulated; plasma levels of proinflammatory cytokines TNF-α and IL-1β [1]: significantly reduced; plasma FD4 level ([2]; R-JAC4 10 mg/kg, JWA^IEC KO mice vs vehicle control): no significant change; activity of plasma glutathione peroxidase and catalase [2, 6]: no significant changes; plasma levels of proinflammatory cytokines TNF-α and IL-1β [2, 6]: no significant changes; oral bioavailability, comparison of isomers ([3]; BALB/c mice, calculated by F=(AUC-po/Dose-po)/(AUC-iv/Dose-iv)): higher than that of S-JAC4; electric resistance of the single Caco-2 cell layer [4, 9]: 1016±64.65 Ω·cm^2; permeability of FD4 through the single cell layer [4, 9]: 410.60 ± 50.99 ng/mL; electric resistance of the single Caco-2 cell layer [4, 10]: 1138±25.97 Ω·cm^2; permeability of FD4 through the single cell layer [4, 10]: 345.40 ± 29.85 ng/mL; electric resistance of the single Caco-2 cell layer ([4]; 10 μM R-JAC4 3 days pretreatment): 1109±101.20 Ω·cm^2; shortening extent of the small intestine [5]: effective in reducing the shortening extent of the small intestine in a dose-dependent manner; concentration of fluorescein FD4 in the plasma ([5]; day 4 post-radiation): dose-dependent down-regulation effect
2 | c1ccc(CSc2nnc([C@@H]3COc4ccccc4O3)o2)nc1 [S-JAC4] | 1.32 | 121 | 17.2 | 48.7 | 4.98 | 27.1 | 410 | 1650 | 116 | 7.72 | 
